System: Akt
Experiment: Akt phosphorylation in rat hippocampus glia mixed culturing system (immunoprecipitation, Western blotting)
Type: cell-based
Conditions: rat hippocampus mixed culture; added at 300 nM or 100 nM; after one day and three days
Method: The hippocampus was removed from a 3 day-old rat and the cells were dispersed in a nerve dispersing solution. After the number of the cells was counted, the cells were suspended in a DMEM/F-12 medium containing 10% FCS (Embryo Max) and was then seeded on a 6-well plate coated with type I collagen at a density of 3×10^5 cells/cm^2. After cultured for 4 days, the medium was replaced with a N2 supplement-containing medium. Compound (I) (Compound 17a was used; hereinafter referred to Compound A) was added to a well at 300 nM or 100 nM, and IGF-1 was added to a well at 100 ng/mL. One day or three days after the addition, the cells were collected using Lysis Buffer containing protease inhibitor cocktail. Each cell suspension was centrifuged at 20000 rpm for 30 minutes and the supernatant was collected. An anti-5G3 Akt antibody was added to the supernatant to immunoprecipitate intracellular Akt. The resulting precipitate was subjected to SDS-PAGE using a 5-20% polyacrylamide gel and then to Western blotting. An anti-Phospho Akt antibody as a primary antibody and an HRP-linked anti-Rabbit antibody as a secondary antibody were used to detect the bands of phosphorylated Akt (Ser473 and Thr308). In order to detect the total Akt, the PVDF membrane was immersed in a reprobe buffer and permeated at 55° C. for 20 minutes to peel the antibodies. […]

COc1cc2c(cc1OC)CN(c1c(C)c(C)c3c(c1C)[C@@H](c1ccc(C)cc1)C(C)(C)O3)C2 [Compound A]
phosphorylation of Akt at Ser473: promoted phosphorylation | phosphorylation of Akt at Thr308: promoted phosphorylation
